Assay results reported in patent US20250144067A1, “PERSONALIZED STARVATION THERAPY FOR CANCER” (Faeth Therapeutics, Inc., priority 2021, published 2025).
Counter-ions that a name gives are not always drawn.

What was measured:
[1] = test system: NCI-H292 lung cancer cells; assay: FDA drug screening, complete media vs cholesterol-free media without statin (TABLE 1); type: cell-based, human
[2] = test system: NCI-H292 lung cancer cells; assay: FDA drug screening, complete media vs cholesterol-free media with simvastatin (TABLE 2); type: cell-based, human; conditions: for Cholesterol-free media + simvastatin (0.04 μM) / Complete Media: NCI-H292 cells
[3] = NCI-H292 cells, cholesterol-free media without statin
[4] = complete vs cholesterol-free media, […]
[5] = cholesterol-free media with simvastatin 0.04 μM, […]
[6] = complete media minus cholesterol-free media + simvastatin, […]
[7] = Complete minus Cholesterol-free, >0 enhanced anti-cancer activity, about 0 neutral, <0 antagonist
[8] = NCI-H292 cells, cholesterol-free media without statin, FDA drug library screen
[9] = NCI-H292 cells, complete media, FDA drug library screen
[10] = FDA drug library screen, cholesterol-free media with simvastatin 0.04 μM
[11] = FDA drug library screen, complete media
[12] = complete media minus cholesterol-free media + simvastatin, >0 enhanced anti-cancer activity, about 0 neutral, <0 antagonist
[13] = complete vs cholesterol-free media, greater than 0 enhanced anti-cancer activity, about 0 neutral, below 0 antagonists
[14] = FDA library drug in cholesterol-free media with simvastatin 0.04 μM
[15] = FDA library drug in complete media
[16] = complete media vs cholesterol-free media + simvastatin (0.04 μM), >0 enhanced anti-cancer activity, about 0 neutral, <0 antagonist
[17] = Complete minus Cholesterol-free, greater than 0 enhanced anti-cancer activity, about 0 neutral, below 0 antagonist
[18] = NCI-H292 cells, FDA drug library screen, cholesterol-free media without statin
[19] = NCI-H292 cells, FDA drug library screen, complete media
[20] = cholesterol-free media with simvastatin 0.04 μM, cell growth value in FDA drug screen
[21] = complete media, cell growth value in FDA drug screen
[22] = Complete minus Cholesterol-free, greater than 0 enhanced anti-cancer activity, about 0 neutral, below 0 antagonists
[23] = NCI-H292 cells in cholesterol-free media without statin
[24] = NCI-H292 cells in complete media
[25] = complete vs cholesterol-free media, >0 enhanced anti-cancer activity, about 0 neutral, <0 antagonist
[26] = cholesterol-free media with simvastatin 0.04 μM, FDA drug library screen (TABLE 2)
[27] = complete media, FDA drug library screen (TABLE 2)
[28] = complete media minus cholesterol-free media + simvastatin (0.04 μM), >0 enhanced anti-cancer activity, about 0 neutral, <0 antagonist
[29] = drug in cholesterol-free media with simvastatin 0.04 μM

Capreomycin (sulfate)
Cholesterol-free [1, 3]: 1.728 | Complete ([1]; NCI-H292 cells, complete media): 1.371 | Difference [1, 4]: −0.36 | Cholesterol-free media + simvastatin (0.04 μM) [2, 5]: 0.9008 | Complete Media ([2]; complete media, […]): 0.9756 | Difference [2, 6]: 0.07

C[C@]12CC[C@@H]3c4ccc(O)cc4CC[C@H]3[C@@H]1CC[C@@H]2O [Estradiol]
Difference [1, 7]: 0.06 | Cholesterol-free [1, 8]: 0.707 | Complete [1, 9]: 0.7678 | Cholesterol-free media + simvastatin (0.04 μM) [2, 10]: 1.106 | Complete Media [2, 11]: 1.409 | Difference [2, 12]: 0.30

CNC(=O)c1cc(Oc2ccc(NC(=O)Nc3ccc(Cl)c(C(F)(F)F)c3)c(F)c2)ccn1 [Regorafenib (monohydrate)]
Cholesterol-free [1, 3]: 1.026 | Complete ([1]; NCI-H292 cells, complete media): 0.6282 | Difference [1, 13]: −0.40 | Cholesterol-free media + simvastatin (0.04 μM) [2, 14]: 1.311 | Complete Media [2, 15]: 0.728 | Difference [2, 16]: −0.58

Nc1ccn([C@@H]2CS[C@H](CO)O2)c(=O)n1 [Lamivudine]
Difference [1, 7]: −0.22 | Cholesterol-free [1, 3]: 1.216 | Complete ([1]; NCI-H292 cells, complete media): 0.9947 | Cholesterol-free media + simvastatin (0.04 μM) [2, 14]: 1.644 | Difference [2, 16]: −0.47

CCCN1CC(NS(=O)(=O)N(CC)CC)CC2Cc3c(O)cccc3CC21 (stereo not shown) [Quinagolide (hydrochloride)]
Difference [1, 17]: −0.15 | Cholesterol-free [1, 18]: 1.129 | Complete [1, 19]: 0.9753 | Cholesterol-free media + simvastatin (0.04 μM) [2, 20]: 0.9283 | Complete Media [2, 21]: 1.019 | Difference [2, 12]: 0.09

CNCC[C@@H](Oc1ccccc1C)c1ccccc1 [Atomoxetine (hydrochloride)]
Difference [1, 22]: −0.68 | Cholesterol-free [1, 23]: 1.663 | Complete [1, 24]: 0.988 | Cholesterol-free media + simvastatin (0.04 μM) [2, 20]: 1.776 | Complete Media [2, 21]: 1.803 | Difference [2, 12]: 0.03

Nc1nc(NC2CC2)c2ncn([C@H]3C=C[C@@H](CO)C3)c2n1.Nc1nc(NC2CC2)c2ncn([C@H]3C=C[C@@H](CO)C3)c2n1.O=S(=O)(O)O [Abacavir (sulfate)]
Difference [1, 7]: 0.06 | Cholesterol-free [1, 8]: 0.4233 | Complete [1, 9]: 0.4872 | Cholesterol-free media + simvastatin (0.04 μM) [2, 10]: 0.2456 | Complete Media [2, 11]: 0.4029 | Difference [2, 12]: 0.16

OCCN1CCN(CCCN2c3ccccc3Sc3ccc(Cl)cc32)CC1 [Perphenazine]
Difference [1, 7]: 0.00 | Cholesterol-free [1, 8]: 0.9098 | Complete [1, 9]: 0.9103 | Cholesterol-free media + simvastatin (0.04 μM) [2, 10]: 0.707 | Complete Media [2, 11]: 0.9554 | Difference [2, 12]: 0.25

CN(C)CCCC1(c2ccc(F)cc2)OCc2cc(C#N)ccc21 (stereo not shown) [Citalopram (hydrobromide)]
Cholesterol-free [1, 8]: 0.8091 | Complete [1, 9]: 1.106 | Difference [1, 25]: 0.30 | Cholesterol-free media + simvastatin (0.04 μM) [2, 14]: 1.457 | Complete Media [2, 15]: 0.8476 | Difference [2, 16]: −0.61

Cc1[nH]c(/C=C2\C(=O)Nc3ccc(F)cc32)c(C)c1C(=O)NCCN1CCCC1 [Toceranib]
Cholesterol-free [1, 8]: 0.7492 | Complete [1, 9]: 1.361 | Difference [1, 25]: 0.61 | Cholesterol-free media + simvastatin (0.04 μM) [2, 20]: 0.9375 | Complete Media [2, 21]: 1.022 | Difference [2, 12]: 0.08

CC(C)OC(=O)CCC/C=C\C[C@@H]1[C@@H](/C=C/[C@@H](O)COc2cccc(C(F)(F)F)c2)[C@H](O)C[C@@H]1O [Travoprost]
Difference [1, 22]: −1.01 | Cholesterol-free [1, 23]: 1.92 | Complete [1, 24]: 0.9075 | Cholesterol-free media + simvastatin (0.04 μM) [2, 26]: 0.9352 | Complete Media [2, 27]: 0.8818 | Difference [2, 28]: −0.05

O=C(C1CCCCC1)N1CC(=O)N2CCc3ccccc3C2C1 (stereo not shown) [Praziquantel]
Cholesterol-free [1, 3]: 1.485 | Complete ([1]; NCI-H292 cells, complete media): 1.043 | Difference [1, 13]: −0.44 | Cholesterol-free media + simvastatin (0.04 μM) [2, 14]: 1.644 | Complete Media [2, 15]: 1.108 | Difference [2, 16]: −0.54

Triamcinolone (acetonide)
Difference [1, 7]: −0.04 | Cholesterol-free [1, 8]: 0.5663 | Complete [1, 9]: 0.5288 | Cholesterol-free media + simvastatin (0.04 μM) [2, 26]: 0.6359 | Complete Media [2, 27]: 0.588 | Difference [2, 28]: −0.05

CCC(=O)O[C@H](CC(=O)O)C[N+](C)(C)C [Levocarnitine propionate (hydrochloride)]
Difference [1, 7]: −0.30 | Cholesterol-free [1, 3]: 1.256 | Complete ([1]; NCI-H292 cells, complete media): 0.9514 | Cholesterol-free media + simvastatin (0.04 μM) [2, 26]: 1.106 | Complete Media [2, 27]: 1.114 | Difference [2, 28]: 0.01

COC(=O)c1cccc(CCN(C)CCC[C@@](C#N)(c2ccc(OC)c(OC)c2)C(C)C)c1 [Etripamil]
Cholesterol-free [1, 3]: 1.343 | Complete ([1]; NCI-H292 cells, complete media): 0.9721 | Difference [1, 4]: −0.37 | Cholesterol-free media + simvastatin (0.04 μM) [2, 5]: 0.8109 | Complete Media ([2]; complete media, […]): 0.8724 | Difference [2, 6]: 0.06

CC1=C(C(=O)OC(C)C)C(c2cccc([N+](=O)[O-])c2)C(C(=O)OC2CN(C(c3ccccc3)c3ccccc3)C2)=C(N)N1 (stereo not shown) [Azelnidipine]
Difference [1, 17]: −0.15 | Cholesterol-free [1, 18]: 0.7076 | Complete [1, 19]: 0.5567 | Cholesterol-free media + simvastatin (0.04 μM) [2, 10]: 0.7982 | Complete Media [2, 11]: 1.013 | Difference [2, 12]: 0.21

CC(C)C(=O)Oc1ccc(CO)cc1[C@H](CCN(C(C)C)C(C)C)c1ccccc1 [Fesoterodine (L-mandelate)]
Cholesterol-free [1, 8]: 0.7419 | Complete [1, 9]: 1.264 | Difference [1, 25]: 0.52 | Cholesterol-free media + simvastatin (0.04 μM) [2, 10]: 1.103 | Complete Media [2, 11]: 0.9892 | Difference [2, 16]: −0.11

CC(C)(S)[C@@H](N)C(=O)O [Penicillamine]
Difference [1, 22]: −0.55 | Cholesterol-free [1, 23]: 1.556 | Complete [1, 24]: 1.005 | Cholesterol-free media + simvastatin (0.04 μM) [2, 29]: 1.252 | Complete Media ([2]; drug in complete media): 1.083 | Difference [2, 16]: −0.17

CN(C)CCC=C1c2ccccc2C=Cc2ccccc21 [Cyclobenzaprine (hydrochloride)]
Cholesterol-free [1, 8]: 1.08 | Complete [1, 9]: 1.26 | Difference [1, 25]: 0.18 | Cholesterol-free media + simvastatin (0.04 μM) [2, 10]: 1.036 | Complete Media [2, 11]: 1.3 | Difference [2, 12]: 0.26

CCCCNC(=O)NS(=O)(=O)c1ccc(C)cc1 [Tolbutamide]
Difference [1, 7]: −0.25 | Cholesterol-free [1, 3]: 1.099 | Complete ([1]; NCI-H292 cells, complete media): 0.8474 | Cholesterol-free media + simvastatin (0.04 μM) [2, 29]: 1.123 | Complete Media ([2]; drug in complete media): 0.9256 | Difference [2, 16]: −0.20

CCOCCn1c(N2CCCN(C)CC2)nc2ccccc21 [Emedastine]
Difference [1, 7]: −0.27 | Cholesterol-free [1, 3]: 0.9896 | Complete ([1]; NCI-H292 cells, complete media): 0.7182 | Cholesterol-free media + simvastatin (0.04 μM) [2, 20]: 0.8891 | Complete Media [2, 21]: 0.9093 | Difference [2, 12]: 0.02

CCC[C@@H]1C[C@@H](C(=O)N[C@@H]([C@H]2O[C@H](SC)[C@H](O)[C@@H](O)[C@H]2O)[C@H](C)Cl)N(C)C1 [Clindamycin (hydrochloride)]
Difference [1, 17]: −0.08 | Cholesterol-free [1, 18]: 1.009 | Complete [1, 19]: 0.9276 | Cholesterol-free media + simvastatin (0.04 μM) [2, 20]: 1.243 | Complete Media [2, 21]: 1.299 | Difference [2, 12]: 0.06

CS(=O)(=O)Nc1cc2occ(NC=O)c(=O)c2cc1Oc1ccccc1 [Iguratimod]
Cholesterol-free [1, 3]: 1.252 | Complete ([1]; NCI-H292 cells, complete media): 0.9044 | Difference [1, 13]: −0.35 | Cholesterol-free media + simvastatin (0.04 μM) [2, 14]: 1.717 | Complete Media [2, 15]: 1.252 | Difference [2, 16]: −0.47

CCC1(C)CC(=O)NC(=O)C1 [Bemegride]
Difference ([1]; Complete minus Cholesterol-free, […]): −0.76 | Cholesterol-free [1, 23]: 1.658 | Complete [1, 24]: 0.894 | Cholesterol-free media + simvastatin (0.04 μM) [2, 10]: 0.8627 | Complete Media [2, 11]: 1.013 | Difference [2, 6]: 0.15

C=C[C@@H]1C[C@]1(NC(=O)[C@@H]1C[C@@H](Oc2ncc(OC)c3ccc(Cl)cc23)CN1C(=O)[C@@H](NC(=O)OC(C)(C)C)C(C)(C)C)C(=O)NS(=O)(=O)C1CC1 [Asunaprevir]
Difference [1, 17]: −0.09 | Cholesterol-free [1, 18]: 1.081 | Complete [1, 19]: 0.9902 | Cholesterol-free media + simvastatin (0.04 μM) [2, 26]: 1.005 | Complete Media [2, 27]: 0.9979 | Difference [2, 28]: −0.01

CC(C)(C)OC(=O)N[C@H]1CCCCC/C=C\[C@@H]2C[C@@]2(C(=O)NS(=O)(=O)C2CC2)NC(=O)[C@@H]2C[C@@H](OC(=O)N3Cc4cccc(F)c4C3)CN2C1=O [Danoprevir]
Cholesterol-free [1, 8]: 0.802 | Complete [1, 9]: 1.257 | Difference [1, 25]: 0.45 | Cholesterol-free media + simvastatin (0.04 μM) [2, 26]: 0.8835 | Complete Media [2, 27]: 0.8799 | Difference [2, 28]: 0.00

Setiptiline (maleate)
Difference [1, 7]: 0.02 | Cholesterol-free [1, 8]: 0.9606 | Complete [1, 9]: 0.9832 | Cholesterol-free media + simvastatin (0.04 μM) [2, 29]: 1.022 | Complete Media ([2]; drug in complete media): 0.7709 | Difference [2, 16]: −0.25

(S)-Flurbiprofen
Difference [1, 22]: −0.56 | Cholesterol-free [1, 23]: 1.504 | Complete [1, 24]: 0.9454 | Cholesterol-free media + simvastatin (0.04 μM) [2, 14]: 1.832 | Difference [2, 16]: −0.79
